In brackets after ≈: the same amount, converted by molar mass.
Key:
Assay type in all cases: binding
[1] = tested on: rabbit anti-SDMA antibody in serum, Rabbit # 154 (SDMA-KLH immunogen); test: Competitive ELISA, specificity of rabbit anti-SDMA antiserum, Rabbit #154; settings: Rabbit # 154 antiserum (1.25K); for % Cross Reactivity: IC50 of SDMA / IC50 of competitor x 100; for IC 50: competition with SDMA-HRP conjugate, absorbance 450 nm
Method: (§1) The immunization protocol for generating the anti-SDMA antibodies was carried out according to the following protocol. Six California breed rabbits were immunized with an SDMA-conjugate. Three of the six rabbits were immunized with SDMA conjugated with BSA (rabbits #155, 156 and 157) and the other three rabbits were immunized with SDMA conjugated with KLH (rabbits #152, 153 and 154) (prepared as described in Example 2). For primary immunizations, each rabbit was injected with 0.5 mg of the SDMA conjugate in 1 ml of phosphate buffered saline (PBS) mixed with 1 ml of Freund's complete adjuvant. Each rabbit received 20-30 intradermal injections on their shaved back. Each rabbit was boosted with 0.25 mg of immunogen in 1 ml PBS mixed with equal volume of Freund's incomplete adjuvant in the hind legs. The boosting shots were given each month after the primary injection. Test bleeds of 5 ml blood were taken from each rabbit 7-10 days after each boost. Production bleeds of 40 ml were taken from each rabbit after the third booster shot, when the antisera titer was greater than about 1:2000. Antiserum titer is the dilution of antiserum that generates the steepest calibration curve for the assay.
(§2) In order to assess the specificity of the antibodies obtained by the procedures described in Example 3 above, their reactivity to SDMA, ADMA, L-arginine, and/or N-methylarginine was measured in a competitive ELISA assay (Table 1).
(§3) ADMA-2HCl, SDMA-2HCl, N-methylarginine acetate (Sigma, Cat. No. M7033) or L-arginine (Sigma, Cat. No. A5006) were each dissolved in PBS to make stock solutions at 1 mg/ml. From these stock solutions, working solutions at 100 μg/ml, 10 μg/ml and 1 μg/ml were prepared in PBS.
(§4) […] After a 30 minutes incubation period at room temperature, the wells were washed 4 times with PBST (Phosphate Buffered Saline, 0.05% Tween).
(§5) 100 μl of 3,3′,5,5′-Tetramethylbenzidine (commercially available from Promega Corporation of Madison, WI) was subsequently added. Following a 30 minutes incubation period at room temperature, 100 μl of stop solution (1 N HCl) was added and the absorbance was measured at 450 nm using a BioTek ELX 808 (Winooski, VT) plate reader. The data was subjected to quantification using Softmax software (Molecular Devices, Sunnyvale, CA).
(§6) The absorbance values obtained with 0 μg/mL, 1 μg/mL, 10 μg/mL, and 100 μg/mL of ADMA, SDMA, N-methylarginine or L-arginine, respectively, were determined and plotted. The concentration of SDMA at which the absorbance value was reduced by 50% (relative to the maximum absorbance obtained at 0 μg/mL SDMA; i.e. IC50) was divided by each of the concentrations of ADMA, N-methylarginine or L-arginine, respectively, at which the absorbance value was reduced by 50% (IC50). The resulting value was multiplied by 100 to obtain the value “% cross-reactivity”.

[2] = tested on: rabbit anti-SDMA antibody in serum, Rabbit # 156 (SDMA-BSA immunogen); test: Competitive ELISA, specificity of rabbit anti-SDMA antiserum, Rabbit #156; settings: Rabbit # 156 antiserum (1:20K); for % Cross Reactivity: IC50 of SDMA / IC50 of competitor x 100; for IC 50: competition with SDMA-HRP conjugate, absorbance 450 nm
Method: as §1, §2, §3, §4, §5, §6

[3] = tested on: rabbit anti-SDMA antibody in serum, Rabbit # 157 (SDMA-BSA immunogen); test: Competitive ELISA, specificity of rabbit anti-SDMA antiserum, Rabbit #157; settings: Rabbit # 157 antiserum (1:15K); for % Cross Reactivity: IC50 of SDMA / IC50 of competitor x 100; for IC 50: competition with SDMA-HRP conjugate, absorbance 450 nm
Method: as §1, §2, §3, §4, §5, §6

[4] = tested on: rabbit anti-SDMA antibody in serum, Rabbit # 153 (SDMA-KLH immunogen); test: Competitive ELISA, specificity of rabbit anti-SDMA antiserum, Rabbit #153; settings: Rabbit # 153 antiserum (1:2.5K); for % Cross Reactivity: IC50 of SDMA / IC50 of competitor x 100; for IC 50: competition with SDMA-HRP conjugate, absorbance 450 nm
Method: as §1, §2, §3, §4, §5, §6

[5] = tested on: rabbit anti-SDMA antibody in serum, Rabbit # 155 (SDMA-BSA immunogen); test: Competitive ELISA, specificity of rabbit anti-SDMA antiserum, Rabbit #155; settings: Rabbit # 155 antiserum (1:3K); for % Cross Reactivity: IC50 of SDMA / IC50 of competitor x 100; for IC 50: competition with SDMA-HRP conjugate, absorbance 450 nm
Method: as §1, §2, §3
(§7) 50 μl of the SDMA-HRP conjugate (as described in Example 5 below), 50 μl of ADMA, SDMA, N-methylarginine or L-arginine (at concentrations from 1-100 μg/ml as described above), and 50 μl of rabbit anti-SDMA antibody in serum (1:3000 titer) were sequentially added to an individual well in a 96-well polystyrene microwell plate, precoated with sheep anti-rabbit IgG (commercially available from Beacon Analytical Systems Inc. of Portland, ME). After a 30 minutes incubation period at room temperature, the wells were washed 4 times with PBST (Phosphate Buffered Saline, 0.05% Tween).
as §5, §6

[6] = tested on: polyclonal antibody from Rabbit No. 154 (anti-SDMA); test: Competitive ELISA, specificity with greater stringency, polyclonal antibody from Rabbit No. 154; settings: polyclonal antibody from Rabbit No. 154, determined with greater stringency
Method: as §7, §5, §6
In another experiment, using only polyclonal antibody from Rabbit No. 154, the specificity of the antibody was determined with greater stringency by the method described above.

[7] = tested on: rabbit anti-SDMA antibody in serum, Rabbit # 152 (SDMA-KLH immunogen); test: Competitive ELISA, specificity of rabbit anti-SDMA antiserum, Rabbit #152; settings: Rabbit # 152 antiserum (1:5K); for % Cross Reactivity: IC50 of SDMA / IC50 of competitor x 100; for IC 50: competition with SDMA-HRP conjugate, absorbance 450 nm
Method: as §1, §2, §3, §4, §5, §6

With CN(C)C(=N)NCCCC(N)C(=O)O (stereo not drawn) [ADMA, asymmetrical dimethylarginine] the “% Cross Reactivity” value [1] was less than 1%, the “IC 50” value [1] was greater than 100 µg/mL and the “% Cross Reactivity” value [2] was less than 1%. The “IC 50” value [2] was greater than 100 µg/mL, the “% Cross Reactivity” value [3] was less than 1% and the “IC 50” value [3] was greater than 100 µg/mL. The “% Cross Reactivity” value [4] was less than 1%, the “IC 50” value [4] was greater than 100 µg/mL and the “% Cross Reactivity” value [5] was less than 1%. For the same compound, the “IC 50” value [5] was greater than 100 µg/mL, the “Specificity (Cross-Reactivity) Rabbit No. 154 Cross-reactivity” value [6] was less than 0.2% and the “% Cross Reactivity” value [7] was less than 1%. For the same compound, the “IC 50” value [7] was greater than 100 µg/mL.

For N=C(N)NCCC[C@H](N)C(=O)O [L-Arginine, L-arginine], the “% Cross Reactivity” value [1] was less than 1%, the “IC 50” value [1] was greater than 100 µg/mL and the “% Cross Reactivity” value [2] was less than 1%. For the same compound, the “IC 50” value [2] was greater than 100 µg/mL, the “% Cross Reactivity” value [3] was less than 1% and the “IC 50” value [3] was greater than 100 µg/mL. The “% Cross Reactivity” value [4] was less than 1%, the “IC 50” value [4] was greater than 100 µg/mL and the “% Cross Reactivity” value [5] was less than 1%. The “IC 50” value [5] was greater than 100 µg/mL, the “Specificity (Cross-Reactivity) Rabbit No. 154 Cross-reactivity” value [6] was less than 0.01% and the “% Cross Reactivity” value [7] was less than 1%. For the same compound, the “IC 50” value [7] was greater than 100 µg/mL.

In the case of CNC(=N)NCCCC(N)C(=O)O (stereo not drawn) [N-MMA, N-monomethylarginine], the “% Cross Reactivity” value [1] is reported as less than 1%, the “IC 50” value [1] is reported as greater than 100 µg/mL and the “% Cross Reactivity” value [2] is reported as less than 1%. The “IC 50” value [2] was greater than 100 µg/mL, the “% Cross Reactivity” value [3] was less than 1% and the “IC 50” value [3] was greater than 100 µg/mL. For the same compound, the “% Cross Reactivity” value [4] was less than 1%, the “IC 50” value [4] was greater than 100 µg/mL and the “% Cross Reactivity” value [5] was less than 1%. The “IC 50” value [5] was 79 µg/mL (≈ 420 µM), the “% Cross Reactivity” value [7] was less than 1% and the “IC 50” value [7] was greater than 100 µg/mL.

C/N=C(\NC)NCCCC(N)C(=O)O (stereo not drawn) [SDMA, symmetrical dimethylarginine] was tested, and the “% Cross Reactivity” value [1] was 100%, the “IC 50” value [1] was 0.49 µg/mL (≈ 2.42 µM) and the “% Cross Reactivity” value [2] was 100%. The “IC 50” value [2] was 1.3 µg/mL (≈ 6.43 µM), the “% Cross Reactivity” value [3] was 100% and the “IC 50” value [3] was 1.6 µg/mL (≈ 7.91 µM). For the same compound, the “% Cross Reactivity” value [4] was 100%, the “IC 50” value [4] was 0.65 µg/mL (≈ 3.21 µM) and the “% Cross Reactivity” value [5] was 100%. For the same compound, the “IC 50” value [5] was 0.73 µg/mL (≈ 3.61 µM), the “Specificity (Cross-Reactivity) Rabbit No. 154 Cross-reactivity” value [6] was 100% and the “% Cross Reactivity” value [7] was 100%. For the same compound, the “IC 50” value [7] was 1.10 µg/mL (≈ 5.44 µM).

Reference: patent publication US20250271442A1, “Methods for Detecting Renal Disease” (IDEXX Laboratories, Inc., priority 2013, published 2025)
